Where a name gives a salt, the structure may show the parent alone.
Experiments:
[1] = target: T1, human PPAR γ 2 (Homo sapiens, UniProt P37231); assay: PPAR γ transcriptional activity, luciferase reporter, test compound alone; assay type: cell-based; details: concentration indicating Emax/2, MG63 cells transfected with pSG5-hPPARg and pGV-P2-PPRE, 24 hr
T1 construct: expressed in transfected cells; host or cells: human osteosarcoma MG63, transiently co-transfected with pSG5-hPPARg and the reporter pGV-P2-PPRE
T1 sequence (P37231 1-505): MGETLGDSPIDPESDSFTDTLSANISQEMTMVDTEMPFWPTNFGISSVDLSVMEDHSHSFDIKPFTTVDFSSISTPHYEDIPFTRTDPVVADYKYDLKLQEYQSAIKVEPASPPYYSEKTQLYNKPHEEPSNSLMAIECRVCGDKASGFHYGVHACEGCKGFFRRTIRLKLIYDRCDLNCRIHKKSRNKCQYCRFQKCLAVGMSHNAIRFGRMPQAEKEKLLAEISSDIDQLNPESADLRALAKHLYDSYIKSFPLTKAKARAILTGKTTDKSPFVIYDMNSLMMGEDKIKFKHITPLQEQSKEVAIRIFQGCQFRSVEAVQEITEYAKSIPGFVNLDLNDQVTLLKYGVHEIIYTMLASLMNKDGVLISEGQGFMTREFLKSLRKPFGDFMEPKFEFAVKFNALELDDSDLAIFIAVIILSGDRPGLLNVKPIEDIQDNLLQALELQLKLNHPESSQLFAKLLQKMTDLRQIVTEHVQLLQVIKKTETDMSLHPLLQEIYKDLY
Method in brief: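 Human osteosarcoma MG63 cells transiently co-transfected with human PPARγ2 expression plasmid and PPRE-luciferase reporter (rat acyl-CoA oxidase promoter element), then exposed 24 h to test compound alone. Luciferase luminescence gave dose-response curves; EC50 is the concentration giving half of the compound's maximal activity (Emax).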

[2] = target: T1, human PPAR γ 2; assay: Inhibitory activity against PPAR γ transcription in the presence of agonist compound A, luciferase reporter; assay type: cell-based; details: in the presence of 10 nM compound A (agonist); MG63 cells transfected with pSG5-hPPARg and pGV-P2-PPRE; 24 hr

EC50 [1] | IC50 [2] | Structure (SMILES)
0.039 µM | 0.04 µM | Cc1ccccc1-c1csc(NC(=O)c2cc([N+](=O)[O-])ccc2Cl)n1 [Example 39, N-[4-(2-Methylphenyl)thiazol-2-yl]-(2-chloro-5-nitrophenyl)carboxamide]
0.011 µM | 0.077 µM | O=C(Nc1nc(-c2cccc3ccccc23)cs1)c1cc([N+](=O)[O-])ccc1Cl [Example 41, N-[4-(1-Naphthyl)thiazol-2-yl]-(2-chloro-5-nitrophenyl)carboxamide]
0.81 µM | 0.054 µM | Cc1ccc(-c2nc(NC(=O)c3cc([N+](=O)[O-])ccc3Cl)sc2C)cc1Cl [Example 46, N-[4-(3-Chloro-4-methylphenyl)-5-methylthiazol-2-yl]-(2-chloro-5-nitrophenyl)carboxamide]
0.42 µM | 0.038 µM | Cc1nc(NC(=O)c2cc([N+](=O)[O-])ccc2Cl)sc1C [Example 47]
0.0066 µM | 0.12 µM | Cc1cccc(NC(=O)c2cc([N+](=O)[O-])ccc2Cl)n1 [Example 51, N-(6-Methylpyridin-2-yl)-(2-chloro-5-nitrophenyl)carboxamide]
0.0056 µM | 0.21 µM | Cc1ccc(NC(=O)c2cc([N+](=O)[O-])ccc2Cl)nc1 [Example 52, N-(5-Methylpyridin-2-yl)-(2-chloro-5-nitrophenyl)carboxamide]
0.0047 µM | 0.34 µM | O=C(Nc1ccc2c3c(cccc13)CC2)c1cc([N+](=O)[O-])ccc1Cl [Example 54, N-(Acenaphthen-5-yl)-(2-chloro-5-nitrophenyl)carboxamide]
0.02 µM | 0.0028 µM | Nc1ccc(NC(=O)c2cc([N+](=O)[O-])ccc2Cl)cc1 [Example 58, N-(4-Aminophenyl)-(2-chloro-5-nitrophenyl)carboxamide mono-hydrochloride]
0.76 µM | 0.023 µM | O=C(Nc1c(Cl)ncnc1Cl)c1cc([N+](=O)[O-])ccc1Cl [Example 81, N-(4,6-Dichloropyrimidin-5-yl)-(2-chloro-5-nitrophenyl)carboxamide]
0.26 µM | 0.4 µM | Cn1c(NC(=O)c2cc([N+](=O)[O-])ccc2Cl)nc2ccccc21 [Example 82, N-(1-Methylbenzimidazol-2-yl)-(2-chloro-5-nitrophenyl)carboxamide]
0.028 µM | 0.091 µM | O=C(Nc1nncs1)c1cc([N+](=O)[O-])ccc1Cl [Example 85, N-(1,3,4-Thiadiazol-2-yl)-(2-chloro-5-nitrophenyl)carboxamide]
0.011 µM | 0.71 µM | O=C(Nc1cccc2nsnc12)c1cc([N+](=O)[O-])ccc1Cl [Example 86, N-(2,1,3-Benzothiazol-4-yl)-(2-chloro-5-nitrophenyl)carboxamide]
0.022 µM | 0.65 µM | O=C(Nc1ccc(S(=O)(=O)Nc2nccs2)cc1)c1cc([N+](=O)[O-])ccc1Cl [Example 96, N-[4-(Thiazol-2-yl)aminosulfonyl]phenyl-(2-chloro-5-nitrophenyl)carboxamide]
0.034 µM | 0.68 µM | Cc1cc(NS(=O)(=O)c2ccc(NC(=O)c3cc([N+](=O)[O-])ccc3Cl)cc2)no1 [Example 99]
0.043 µM | 0.49 µM | O=C(Nc1ccc(S(=O)(=O)Nc2ccc(Cl)nn2)cc1)c1cc([N+](=O)[O-])ccc1Cl [Example 102, N-[4-[(6-Chloropyridazin-3-yl)aminosulfonyl]phenyl]-(2-chloro-5-nitrophenyl)carboxamide]
0.087 µM | 0.71 µM | COc1cnc(NS(=O)(=O)c2ccc(NC(=O)c3cc([N+](=O)[O-])ccc3Cl)cc2)nc1 [Example 105, N-[4-[(5-Methoxypyrimidin-2-yl)aminosulfonyl]phenyl]-(2-chloro-5-nitrophenyl)carboxamide]
0.049 µM | 0.36 µM | N=C(N)NS(=O)(=O)c1ccc(NC(=O)c2cc([N+](=O)[O-])ccc2Cl)cc1 [Example 106, N-[4-(Amidinoaminosulfonyl)phenyl]-(2-chloro-5-nitrophenyl)carboxamide]

EC50 [1] | IC50 [2] | Structure (SMILES)
0.057 µM | 0.059 µM | O=C(Nc1ccc(S(=O)(=O)Nc2ccnn2-c2ccccc2)cc1)c1cc([N+](=O)[O-])ccc1Cl [Example 108, N-[4-[(2-Phenyl-(2H)-pyrazol-3-yl)aminosulfonyl]phenyl]-(2-chloro-5-nitrophenyl)carboxamide]
0.015 µM | 0.19 µM | O=C(Nc1nnc(-c2ccccc2)s1)c1cc([N+](=O)[O-])ccc1Cl [Example 110, N-(5-Phenyl-[1,3,4]thiadiazol-2-yl)-(2-chloro-5—nitrophenyl)carboxamide]
0.079 µM | 0.027 µM | O=C(Nc1nc(-c2ccc(F)c(F)c2)cs1)c1cc([N+](=O)[O-])ccc1Cl [Example 111, N-[4-(3,4-Difluorophenyl)thiazol-2-yl]-(2-chloro-5-nitrophenyl)carboxamide]
0.0087 µM | 0.12 µM | CC(=O)Nc1ccc(NC(=O)c2cc([N+](=O)[O-])ccc2Cl)cc1 [Example 117, N-(4-Acetylaminophenyl)-(2-chloro-5-nitrophenyl)carboxamide]
0.021 µM | 0.036 µM | O=C(Nc1ccc(NC(=O)c2cc([N+](=O)[O-])ccc2Cl)cc1)c1ccccc1 [Example 119, N-(4-Benzoylaminophenyl)-(2-chloro-5-nitrophenyl)carboxamide]
0.019 µM | 0.24 µM | O=C(Nc1ccc(NC(=O)c2cc([N+](=O)[O-])ccc2Cl)cc1)c1ccncc1 [Example 125, N-[4-(Pyridin-4-ylcarbonylamino)phenyl]-(2-chloro-5-nitrophenyl)carboxamide]
0.13 µM | 0.02 µM | CCCCCCN(CCCCCC)c1ccc(NC(=O)c2cc([N+](=O)[O-])ccc2Cl)cc1 [Example 138, N-[4-(N,N-di-n-Hexylamino)phenyl]-(2-chloro-5-nitrophenyl)carboxamide]
0.76 µM | 0.023 µM | CC(C)(C)c1cc(C(=O)Nc2ccc(NC(=O)c3cc([N+](=O)[O-])ccc3Cl)cc2)cc(C(C)(C)C)c1O [Example 157, N-[4-[(3,5-di-tert-Butyl-4-hydroxybenzoyl)amino]phenyl]-(2-chloro-5-nitrophenyl)carboxamide]
0.011 µM | 0.066 µM | CN(C)c1cccc(NC(=O)c2cc([N+](=O)[O-])ccc2Cl)c1 [Example 176, N-(3-Dimethylamino)phenyl-(2-chloro-5-nitrophenyl)carboxamide]
0.016 µM | 0.33 µM | O=C(Nc1ccc(S(=O)(=O)Nc2cccnc2)cc1)c1cc([N+](=O)[O-])ccc1Cl [Example 178]
0.78 µM | 0.056 µM | O=C(Nc1ccc(S(=O)(=O)Nc2ccc(N3CCOCC3)cc2)cc1)c1cc([N+](=O)[O-])ccc1Cl [Example 179, N-[4-[4-(Morpholin-4-yl)phenyl]aminosulfonyl]phenyl-(2-chloro-5-nitrophenyl)carboxamide]
0.0056 µM | 0.02 µM | CCCNc1ccc(NC(=O)c2cc([N+](=O)[O-])ccc2Cl)cc1 [Example 181, N-[4-(N-Propylamino)phenyl]-(2-chloro-5-nitrophenyl)carboxamide]
0.0007 µM | 0.0036 µM | CCCN(CC)c1ccc(NC(=O)c2cc([N+](=O)[O-])ccc2Cl)cc1 [Example 189, N-[4-(N-Ethyl-N-propylamino)phenyl]-(2-chloro-5-nitrophenyl)carboxamide]
0.0042 µM | 0.03 µM | O=C(Nc1cccc(O)c1)c1cc([N+](=O)[O-])ccc1Cl [Example 191, N-(3-Hydroxyphenyl)-(2-chloro-5-nitrophenyl)carboxamide]
0.61 µM | 0.056 µM | CCN(c1ccc(NS(=O)(=O)c2ccc(NC(=O)c3cc([N+](=O)[O-])ccc3Cl)cc2)cc1)C(C)C [Example 232, N-[[4-[4-(N-Ethyl-N-isopropylamino)phenyl]aminosulfonyl]phenyl]-(2-chloro-5-nitrophenyl)carboxamide]
0.044 µM | 0.052 µM | CC(O)c1cccc(NC(=O)c2cc([N+](=O)[O-])ccc2Cl)c1 (stereo not shown) [Example 239, N-[3-(1-Hydroxyethyl)phenyl]-(2-chloro-5-nitrophenyl)carboxamide]
0.12 µM | 0.13 µM | O=C(Nc1ccc(NC(=S)Nc2cccnc2)cc1)c1cc([N+](=O)[O-])ccc1Cl [Example 257, N-[4-[(Pyridin-3-yl)aminothiocarbonylamino]phenyl]-(2-chloro-5-nitrophenyl)carboxamide]

Structure (SMILES) | EC50 [1] | IC50 [2]
Cc1ccc(S(=O)(=O)Nc2ccc(NC(=O)c3cc([N+](=O)[O-])ccc3Cl)cc2)cc1 [Example 116, N-[4-(4-Toluenesulfonylamino)phenyl]-(2-chloro-5-nitrophenyl)carboxamide] | 0.011 µM | 0.055 µM

Reference: patent US20030134859A1 (SANKYO COMPANY, LIMITED, priority 2000, published 2003)
